In the supplement of paper PMC10307832:

Legend:
Test in all cases: relative viability (nuclei count vs DMSO), 5 days (fraction); higher = more cells survive
[1] = compound: C1CSC2=C(C(=O)N1)SC3=C2C=C(C=C3)O [kb NB 142-70] + Cc1cc(Nc2cc(N3CCN(C)CC3)nc(Sc3ccc(NC(=O)C4CC4)cc3)n2)n[nH]1 [Tozasertib] (partner 0.1 µM)
Procedure, shortened: (§1)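 Medians of duplicate plates are given as relative viability. That measure is the nuclei count in treated wells divided by the count in vehicle wells. Counts were taken on 4× images of lung cancer cell lines in 1536-well plates, 5 days after pin-tool dosing the day after seeding with one drug alone or a fixed anchor-drug dose plus five library-drug doses (not always all listed) in √10 steps.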

[2] = compound: NCC(=O)Nc1ccc(-n2nc(C(F)(F)F)cc2-c2ccc3c(ccc4ccccc43)c2)cc1 + CS(=O)(=O)CCNCc1ccc(-c2ccc3ncnc(Nc4ccc(OCc5cccc(F)c5)c(Cl)c4)c3c2)o1 [Lapatinib] (partner 2 µM)
Procedure, shortened: as §1

[3] = compound: NCC(=O)Nc1ccc(-n2nc(C(F)(F)F)cc2-c2ccc3c(ccc4ccccc43)c2)cc1 + CC(C)C[C@H](NC(=O)[C@H](Cc1ccccc1)NC(=O)c1cnccn1)B(O)O [Bortezomib] (partner 0.002 µM)
Procedure, shortened: as §1

[4] = compound: C1CSC2=C(C(=O)N1)SC3=C2C=C(C=C3)O [kb NB 142-70] + Nc1ncn([C@H]2C[C@H](O)[C@@H](CO)O2)c(=O)n1 [Decitabine] (partner 2 µM)
Procedure, shortened: as §1

[5] = compound: C1CSC2=C(C(=O)N1)SC3=C2C=C(C=C3)O [kb NB 142-70] + N=C(N)NC(=N)NCCc1ccccc1 [Phenformin] (partner 250 µM)
Procedure, shortened: as §1

| Cell Line | relative viability ([1]; first compound 0.1 µM) | relative viability ([1]; first compound 1 µM) | relative viability ([1]; first compound 3.162 µM) | relative viability ([2]; first compound 0.02 µM) | relative viability ([2]; first compound 0.06325 µM) | relative viability ([2]; first compound 0.2 µM) | relative viability ([2]; first compound 0.6325 µM) | relative viability ([2]; first compound 2 µM) | relative viability ([3]; first compound 0.02 µM) | relative viability ([3]; first compound 0.06325 µM) | relative viability ([3]; first compound 0.2 µM) | relative viability ([3]; first compound 0.6325 µM) | relative viability ([3]; first compound 2 µM) | relative viability ([4]; first compound 0.1 µM) | relative viability ([4]; first compound 1 µM) | relative viability ([4]; first compound 3.162 µM) | relative viability ([5]; first compound 0.1 µM) | relative viability ([5]; first compound 1 µM) | relative viability ([5]; first compound 3.162 µM) |
| --- | --- | --- | --- | --- | --- | --- | --- | --- | --- | --- | --- | --- | --- | --- | --- | --- | --- | --- | --- |
| PC-3 [JPC-3] | 0.923 | 0.94 | 0.773 | 0.411 | 0.458 | 0.428 | 0.444 | 0.528 | 0.763 | 0.853 | 0.8 | 0.816 | 0.929 | 0.831 | 0.833 | 0.871 | 0.475 | 0.472 | 0.474 |
| PC-14 | 0.569 | 0.612 | 0.531 | 0.381 | 0.277 | 0.305 | 0.305 | 0.37 | 0.966 | 0.822 | 1.06 | 0.895 | 0.858 | 0.187 | 0.284 | 0.193 | 0.658 | 0.56 | 0.619 |
| RERF-LC-KJ | 0.445 | 0.486 | 0.445 | 0.955 | 0.828 | 0.909 | 0.891 | 0.82 | 1.11 | 1.19 | 1.15 | 1.26 | 1.14 | 0.681 | 0.664 | 0.482 | 0.409 | 0.463 | 0.445 |
| SK-LU-1 | 0.339 | 0.282 | 0.182 | 0.87 | 0.841 | 0.887 | 0.905 | 0.929 | 1.07 | 1.22 | 1.23 | 1.07 | 1.31 | 0.589 | 0.505 | 0.417 | 0.546 | 0.451 | 0.265 |
| SW 1573 | 0.153 | 0.182 | 0.146 | 1.17 | 1 | 1.17 | 0.978 | 1.08 | 1.16 | 1.28 | 1.05 | 0.894 | 1.02 | 0.526 | 0.378 | 0.26 | 0.378 | 0.264 | 0.175 |
